Assay results from US20030212104A1, “Treatment of diabetes and diabetic complications with NHE-1 inhibitors” (Pfizer Inc., priority 2002, published 2003).

System: diabetic ob/ob mice
Assay: Antidiabetic effect in diabetic ob/ob mice (plasma glucose, insulin, triglyceride)
Assay type: in vivo
Text: Five to eight week old male C57BLU6J-ob/ob mice (obtained from Jackson Laboratory, Bar Harbor, Me.) are housed five per cage under standard animal care practices. After a one week acclimation period, the animals are weighed and 25 microliters of blood are collected from the retro-orbital sinus prior to any treatment. The blood sample is immediately diluted 1:5 with saline containing 0.025% sodium heparin, and held on ice for metabolite analysis. Animals are assigned to treatment groups so that each group has a similar mean for plasma glucose concentration. After group assignment, animals are dosed orally each day for four days with the vehicle consisting of either: (1) 0.25% w/v methyl cellulose in water without pH adjustment; or (2) 0.1% Pluronic® P105 Block Copolymer Surfactant (BASF Corporation, Parsippany, N.J.) in 0.1% saline without pH adjustment. On day 5, the animals are weighed again and then dosed orally with a test compound or the vehicle alone. All compounds are administered in vehicle consisting of either: (1) 0.25% w/v methyl cellulose in water; or 3) neat PEG 400 without pH adjustment; (2) 10% DMSO/O.1% Pluronic® in 0.1% saline without pH adjustment; or 3) neat PEG 400 without pH adjustment. The animals are then bled from the retro-orbital sinus three hours later for determination of blood metabolite levels. The freshly collected samples are centrifuged for two minutes at 10,000×g at room temperature. The supernatant is analyzed for glucose, for example, by the Abbott VP™ (Abbott Laboratories, Diagnostics Division, Irving, Tex.) and VP Super System® Autoanalyzer (Abbott Laboratories, Irving, Tex.), or by the Abbott Spectrum CCX™ (Abbott Laboratories, Irving, Tex.) using the A-Gent™ Glucose-UV Test reagent system (Abbott Laboratories, Irving, Tex.) (a modification of the method of Richterich and Dauwalder, Schweizerische Medizinische Wochenschrift, 101: 860 (1971)) (hexokinase method) using a 100 mg/dl standard. Plasma glucose is then calculated by the equation: Plasma glucose (mg/dl)=Sample value×8.14
where 8.14 is the dilution factor, adjusted for plasma hematocrit (assuming the hematocrit is 44%).
Hypoglycemic activity of the test compounds is determined by statistical analysis (unpaired t-test) of the mean plasma glucose concentration between the test compound group and vehicle-treated group on day 5. The above assay carried out with a range of doses of a test compound allows the determination of an approximate minimal effective dose (MED) value for the in vivo reduction of plasma glucose concentration.
Five to eight week old male C57BL/6J-ob/ob mice (obtained from Jackson Laboratory, Bar Harbor, Me.) are housed five per cage under standard animal care practices and fed standard rodent diet ad libitum. After a one week acclimation period, the animals are weighed and 25 microliters of blood are collected from the retro-orbital sinus prior to any treatment. The blood sample is immediately diluted 1:5 with saline containing 0.025% sodium heparin, and held on ice for plasma glucose analysis. Animals are assigned to treatment groups so that each group has a similar mean for plasma glucose concentration. The compound to be tested is administered by oral gavage as an about 0.02% to 2.0% solution (weight/volume (w/v)) in either (1) 10% DMSO/0.1% Pluronic® P105 Block Copolymer Surfactant (BASF Corporation, Parsippany, N.J.) in 0.1% saline without pH adjustment or (2) 0.25% w/v methylcellulose in water without pH adjustment. Alternatively, the compound to be tested can be administered by oral gavage dissolved in or in suspension in neat PEG 400. Single daily dosing (s.i.d.), twice daily dosing (b.i.d.) or other dosing regimen is maintained for 1 to, for example, 15 days. Control mice receive the 10% DMSO/0.1% Pluronic® P105 in 0.1 % saline without pH adjustment or the 0.25% w/v methylcellulose in water without pH adjustment, or the neat PEG 400 without pH adjustment. […]

[1] = Study 1 conclusion: diabetic ob/ob mice, 20 mg/kg qd for five days
[2] = Study 3 conclusion: diabetic ob/ob mice, 20 mg/kg bid for seven days

| Compound | Day 5, 3h post-dose plasma insulin concentration (Study 1: ob/ob mice n=10, 20 mg/kg qd for five days, mean ± SD, vehicle control 57.7 ± 24.5, p = 0.000331) | Day 5, 3h post-dose plasma glucose concentration (Study 1: ob/ob mice n=10, 20 mg/kg qd for five days, mean ± SD, vehicle control 482 ± 139, p = 0.0498) | Plasma glucose concentration compared to the vehicle control group [1] | Plasma insulin concentration compared to the vehicle control group [1] | Day 5, 3h post-dose plasma insulin concentration (Study 2: ob/ob mice n=10, 20 mg/kg bid for four days plus AM dose on fifth day, mean ± SD, vehicle control 10.0 ± 6.8) | Day 5, 3h post-dose plasma glucose concentration (Study 2: ob/ob mice n=10, 20 mg/kg bid for four days plus AM dose on fifth day, mean ± SD, vehicle control 322 ± 72, p = 0.0003) | Plasma glucose concentration compared to the vehicle control group (Study 2 conclusion: diabetic ob/ob mice, 20 mg/kg bid for four days) | Day 8, 3h post-dose plasma triglyceride concentration (Study 3: ob/ob mice n=15, 20 mg/kg bid for seven days plus AM dose on eighth day, mean ± SD, vehicle control 167 ± 44, p = 0.0002) | Day 8, 3h post-dose plasma glucose concentration (Study 3: ob/ob mice n=15, 20 mg/kg bid for seven days plus AM dose on eighth day, mean ± SD, vehicle control 397 ± 134, p = 0.0001) | Plasma glucose concentration compared to the vehicle control group [2] | Plasma insulin concentration compared to the vehicle control group [2] | Plasma triglyceride concentration compared to the vehicle control group [2] |
| --- | --- | --- | --- | --- | --- | --- | --- | --- | --- | --- | --- | --- |
| N=C(N)NC(=O)c1cnn(-c2cccc3ncccc23)c1C1CC1 [[5-cyclopropyl-1-(quinolin-5-yl)-1H-pyrazole-4-carbonyl]guanidine] | 20.5 ± 10.3 µg/L | 371 ± 90 mg/dL | significantly reduced | significantly reduced | – | – | – | – | – | – | – | – |
| [1-(2-trifluoromethyl-4-chlorophenyl)-5-cyclopropyl-1H-pyrazole-4-carbonyl]-guanidine | – | – | – | – | 11.1 ± 9.0 µg/L | 195 ± 50 mg/dL | significantly reduced | 107 ± 24 mg/dL | 204 ± 69 mg/dL | significantly reduced | significantly reduced | significantly reduced |
